Laboratory results as given in PubChem BioAssay (NCI).
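Where inhibition never reached the appropriate level, the endpoint shown equals the highest concentration tested. Otherwise, values were interpolated linearly from a five-concentration, 48-hour dose response in 96-well plates. GI50 marks 50% less growth. TGI: total growth inhibition.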

Assays:
Test in all cases: NCI-60 cell line screen, 48 h
[1] = system: DU-145 prostate
[2] = system: HOP-62 NSCLC
[3] = system: HT29 colon
[4] = system: MDA-MB-231 breast
[5] = system: NCI/ADR-RES ovarian
[6] = system: OVCAR-4 ovarian
[7] = system: RXF 393 renal
[8] = system: SF-295 CNS
[9] = system: SF-539 CNS
[10] = system: UO-31 renal

| Compound | TGI [1] | TGI [2] | TGI [3] | TGI [4] | TGI [5] | TGI [6] | TGI [7] | TGI [8] | TGI [9] | TGI [10] | GI50 [1] | GI50 [2] | GI50 [3] | GI50 [5] | GI50 [6] | GI50 [7] | GI50 [9] | GI50 [4] | GI50 [8] | GI50 [10] |
| --- | --- | --- | --- | --- | --- | --- | --- | --- | --- | --- | --- | --- | --- | --- | --- | --- | --- | --- | --- | --- |
| Cc1ccc(S(=O)(=O)Nc2cc(=O)[nH]c3c2CCC3)cc1 | > 100 µM | > 100 µM | > 100 µM | > 100 µM | > 100 µM | > 100 µM | > 100 µM | > 100 µM | > 100 µM | > 100 µM |  |  |  |  |  |  |  |  |  |  |
| CCOC(=O)/C=C/C1=C(Br)[C@@]2(C)CC[C@@H]3c4ccc(O)cc4CC[C@H]3[C@@H]2C1 | 19.1 µM | 27.5 µM | 27.8 µM |  | 27.9 µM | 27.7 µM | 29.5 µM | 29.2 µM | 30.7 µM | 30.4 µM |  |  |  |  |  |  |  |  |  |  |
| CS(=O)(=O)Nc1cccc(-c2ccc3ncnc(Nc4cncc(Cl)c4)c3c2)c1 | > 100 µM | 17.8 µM | 4.65 µM |  | > 100 µM | > 100 µM | 4.41 µM |  | 5.82 µM |  | 1.16 µM | 2.7 µM | 1.85 µM | 13.7 µM | 4.16 µM | 1.43 µM | 2.06 µM |  |  |  |
| C#C[C@]1(O)[C@@H](CO)O[C@@H](n2ccc(=O)[nH]c2=O)[C@@H]1O | 0.695 µM | 1.05 µM | > 100 µM | 3.77 µM |  | 45.3 µM |  | > 45.2 µM | 1.39 µM | 0.183 µM |  |  |  |  |  |  |  |  |  |  |
| CN(CCN1C(=O)c2cccc3cccc(c23)C1=O)CCN1C(=O)c2cccc3cccc(c23)C1=O | > 100 µM | 26.4 µM | > 100 µM | 33.6 µM | > 100 µM | > 100 µM | 76.9 µM | 29 µM | > 100 µM | 28.8 µM |  |  |  |  |  |  |  |  |  |  |
| NC(N)=N/N=C/c1c(-c2cccs2)nc2n1CCS2 |  |  | 30.9 µM | 33.4 µM |  |  | > 100 µM | 30.6 µM | 33.3 µM | > 100 µM |  |  | 17.2 µM |  |  | 77.7 µM | 19.2 µM | 13.7 µM | 14 µM | 70.4 µM |
| Oc1ccc(Cl)cc1C1=Nn2c(COc3ccc4c(c3)CCCC4)nnc2SC1 | 40 µM | 27.5 µM |  | 34.2 µM | 41.2 µM | 13.8 µM | 32.9 µM | 29.7 µM | 33.4 µM | 23.4 µM |  |  |  |  |  |  |  |  |  |  |
| c1ccc(C[N+]23C(CC[C@H]2c2ccccc2)CC[C@H]3c2ccccc2)cc1 (stereo partly drawn) | > 100 µM | > 100 µM | > 100 µM | > 100 µM |  | > 100 µM | 57.2 µM | > 100 µM |  | > 100 µM |  |  |  |  |  |  |  |  |  |  |
| OC1CCSc2ccccc21 (stereo not drawn) |  | > 100 µM | > 100 µM |  |  | > 100 µM | > 100 µM |  | > 100 µM | > 100 µM |  |  |  |  |  |  |  |  |  |  |
| Nc1csc(-c2scc3c2OCCO3)c1N | 53.8 µM | 42.6 µM | 52.6 µM | 41.4 µM | 61.7 µM | > 100 µM | 56.1 µM | 38.3 µM | 47.4 µM | 33.4 µM |  |  |  |  |  |  |  |  |  |  |
| Cc1cc(=O)[nH]c(S(=O)(=O)NC(=O)Nc2cccc(Cl)c2)n1 | > 100 µM | > 100 µM | > 100 µM | > 100 µM | > 100 µM | > 41.7 µM | > 100 µM | > 100 µM | > 100 µM | 13.9 µM |  |  |  |  |  |  |  |  |  |  |
| CC1(C)CC(C(=O)OCCCCCCCCCCC[P+](c2ccccc2)(c2ccccc2)c2ccccc2)C(C)(C)N1O (stereo not drawn) | 1.39 µM | 0.904 µM | 1.17 µM | 0.849 µM |  | 1.4 µM |  | 0.538 µM | 1.28 µM | 2.29 µM | 0.319 µM | 0.319 µM | 0.21 µM |  | 0.249 µM |  | 0.324 µM | 0.252 µM | 0.211 µM | 0.972 µM |
| CCOC(=O)c1cccc(N=Nc2ncc(/C=C/C(=O)OC)[nH]2)c1 | > 100 µM | 51.3 µM | > 100 µM | > 100 µM | > 100 µM | > 100 µM | > 100 µM | 63.2 µM | > 100 µM | 72 µM |  |  |  |  |  |  |  |  |  |  |
| CC(C)(C)COS(=O)OCC(C)(C)C | > 100 µM | > 100 µM | > 100 µM | > 100 µM | > 100 µM | > 100 µM | > 100 µM | > 100 µM | > 100 µM | > 100 µM |  |  |  |  |  |  |  |  |  |  |
| Fc1c(F)c(F)c(CSc2nc3ccccc3[nH]2)c(F)c1F | > 100 µM | > 100 µM | > 100 µM | > 100 µM | > 100 µM | > 100 µM | > 100 µM | > 100 µM | > 100 µM | > 100 µM |  |  |  |  |  |  |  |  |  |  |
| CC12OC(C(=O)C13CCC3)C1C(=O)c3c(O)ccc(O)c3C(=O)C12 (stereo not drawn) | 19.5 µM | 15.6 µM | > 51.6 µM | 7.47 µM | 2.63 µM | > 100 µM | 3.3 µM | 10.3 µM | 15.8 µM | 9.06 µM | 5.01 µM | 3.01 µM | 0.897 µM | 0.69 µM | 4.06 µM | 1.41 µM | 2.99 µM | 2.41 µM |  | 2.82 µM |

| Compound | TGI [1] | TGI [2] | TGI [3] | TGI [4] | TGI [5] | TGI [6] | TGI [7] | TGI [8] | TGI [9] | TGI [10] | GI50 [1] | GI50 [2] | GI50 [3] | GI50 [5] | GI50 [6] | GI50 [7] | GI50 [9] | GI50 [4] | GI50 [8] | GI50 [10] |
| --- | --- | --- | --- | --- | --- | --- | --- | --- | --- | --- | --- | --- | --- | --- | --- | --- | --- | --- | --- | --- |
| O=C(NN1CCCCC1)c1cc2cc(CCl)ccc2oc1=O | > 100 µM | 40.5 µM | 33 µM | 38.6 µM | 54.2 µM | 36.4 µM | 34.4 µM | 42 µM | > 100 µM | 35.3 µM |  |  |  |  |  |  |  |  |  |  |
| CN(C)c1ccc(/C=C2\C[C@H]3[C@@H]4CC=C5C[C@@H](O)CC[C@]5(C)[C@H]4CC[C@]3(C)[C@H]2O)cc1 | > 100 µM | > 100 µM | 27.5 µM | 34.5 µM | 43.7 µM | 98.6 µM | 68 µM | 44.8 µM | 22.1 µM | 36.9 µM |  |  |  |  |  |  |  |  |  |  |
| Cc1ccc([N+](=O)[O-])cc1S(=O)(=O)Nc1ccc(C2=NN(C(=O)c3ccccc3)C(c3ccccc3O)C2)cc1 (stereo not drawn) | 41.5 µM | 85.7 µM | 62.5 µM | 37.7 µM | > 100 µM | 42.8 µM | 31.9 µM | > 100 µM | 38.4 µM | 76.6 µM |  |  |  |  |  |  |  |  |  |  |
| C/C=C/C(O)P(=O)(OC)OC (stereo not drawn) | 1.49 µM | 2.23 µM | 1.11 µM | 1.57 µM |  | 1.51 µM | 0.543 µM | 1.39 µM | 0.74 µM | 0.334 µM |  |  |  |  |  |  |  |  |  |  |
| Clc1cccc(/C=c2\nc(-c3ccccc3)n3c2nc2ccccc23)c1 | > 100 µM | > 100 µM | > 100 µM | > 100 µM | > 100 µM | > 100 µM | > 100 µM | > 100 µM | > 100 µM | > 100 µM |  |  |  |  |  |  |  |  |  |  |
| COc1cc2cc[n+](C)c(Cc3ccc(Oc4cc(Cc5c6cc(OC)c(OC)cc6cc[n+]5C)ccc4OC)cc3)c2cc1OC | > 100 µM | > 100 µM | > 100 µM | > 100 µM |  | > 100 µM | > 100 µM | > 100 µM | > 100 µM | > 100 µM |  |  |  |  |  |  |  |  |  |  |
| Nc1ccc(Cc2ccc(N)c(C(=O)O)c2)cc1C(=O)O |  | > 100 µM | > 100 µM | > 100 µM | > 100 µM | > 100 µM | > 100 µM | > 100 µM | > 100 µM | > 100 µM |  |  |  |  |  |  |  |  |  |  |
| C=C(CN(C)C)C(=O)c1ccccc1Cl | > 100 µM | > 100 µM | 34.4 µM |  |  | 40.8 µM | 29.6 µM | > 100 µM | > 54.6 µM | 33.6 µM |  |  |  |  |  |  |  |  |  |  |
| O=S(C(c1ccccc1)=P(c1ccccc1)(c1ccccc1)c1ccccc1)c1ccc(Cl)cc1 (stereo not drawn) | 42.7 µM | 64.6 µM | > 100 µM | 70 µM | > 100 µM | 98.3 µM | 95.1 µM | > 100 µM | > 100 µM | > 100 µM |  |  |  |  |  |  |  |  |  |  |
| COc1ccc(-n2nc(C(=O)c3ccccc3)c3nn4c(=O)cc(-c5ccccc5)nc4nc32)cc1 | > 100 µM | > 100 µM | > 100 µM | > 100 µM | > 100 µM | > 100 µM | > 100 µM | 85.2 µM | > 100 µM | > 100 µM | 49.2 µM | 44.1 µM | 32.2 µM | 34.5 µM | 30.5 µM | > 100 µM | 41.8 µM | 28.7 µM | 28.9 µM | 28.6 µM |
| CN(CCCNC(=O)c1nn(-c2ccccc2)c2c1Cc1ccccc1-2)CCCNC(=O)c1nn(-c2ccccc2)c2c1Cc1ccccc1-2 | 3.21 µM |  | 3.42 µM | 2.99 µM | 3.37 µM | 1.85 µM |  |  | 2.97 µM | 3.29 µM |  |  |  |  |  |  |  |  |  |  |
| CN(CCc1ccccn1)c1ccc2c(c1)Cc1ccccc1-2 | > 100 µM | 44.6 µM | > 100 µM | 21.9 µM | > 100 µM | 97.7 µM | > 100 µM | 41.1 µM |  | > 100 µM |  |  |  |  |  |  |  |  |  |  |
| O=C1CNc2cc(N3CCCCC3)ccc2N1 | > 100 µM | > 100 µM | 24.4 µM |  | > 100 µM | > 100 µM |  | > 100 µM | > 100 µM | > 100 µM |  |  |  |  |  |  |  |  |  |  |
| Cc1c2ccccc2cc2cccc[n+]12 | > 100 µM | > 100 µM | > 100 µM | > 100 µM | > 100 µM |  | > 100 µM | > 100 µM | > 100 µM | 83.5 µM |  |  |  |  |  |  |  |  |  |  |
| CC(CCCCNC(=O)OC(C)(C)C)NC(=O)NC(C)CCCCNC(=O)OC(C)(C)C (stereo not drawn) | > 100 µM | > 100 µM | > 100 µM | > 100 µM | > 100 µM | > 100 µM | > 100 µM | > 100 µM |  | > 100 µM |  |  |  |  |  |  |  |  |  |  |
| CS(=O)(=O)Nc1ccc(NCc2cnc3ccc4[nH]cccc4c23)cc1 | 71.3 µM | > 100 µM | > 100 µM | 97.4 µM | > 100 µM | 78.4 µM | 41.9 µM | > 100 µM | 68.3 µM | 78.2 µM |  |  |  |  |  |  |  |  |  |  |
